From patent publication US9757337B2, “Multicompartmental lipid nanoparticles” (CENTRE NATIONAL DE LA RECHERCHE SCIENTIFIQUE—CNRS, priority 2013, dated 2017)

Assay: Stability of quercetin in various fluids quantified by HPLC assay
Assay type: physicochemical
Description: To this end, the stability of quercetin in various fluids was quantified by means of an HPLC assay. The various fluids studied were simulated gastric fluid (SGF, US Pharmacopeia) at room temperature and at 37° C., simulated intestinal fluid (SIF, US Pharmacopeia), 10 mM HEPES buffer (pH 7.4) and room-temperature water.

stability in more acidic fluids compared with room-temperature water (more acidic fluids (SGF), samples over 24 hours): more stable
quercetin degraded (room-temperature water, within 17 hours): about 50%
SMILES: O=c1c(O)c(-c2ccc(O)c(O)c2)oc2cc(O)cc(O)c12 [quercetin]
